The target in one series is T1, A1 receptor (Rattus norvegicus, UniProt P25099).
T1 construct: host or cells: rodent (rat) in vivo models
T1 sequence (P25099 1-326): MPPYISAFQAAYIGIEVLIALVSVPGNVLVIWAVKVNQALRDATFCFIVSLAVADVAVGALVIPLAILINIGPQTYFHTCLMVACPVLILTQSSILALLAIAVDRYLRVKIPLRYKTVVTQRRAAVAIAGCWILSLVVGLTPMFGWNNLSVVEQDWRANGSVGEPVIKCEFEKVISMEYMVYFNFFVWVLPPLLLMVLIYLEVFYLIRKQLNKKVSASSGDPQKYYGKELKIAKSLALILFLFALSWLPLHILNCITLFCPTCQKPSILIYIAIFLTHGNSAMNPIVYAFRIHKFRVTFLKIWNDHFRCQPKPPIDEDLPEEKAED
Particulars: rodent models, blockade of A1 receptor; cited from earlier work.

Another series relates to mouse model. Nature of the series: MSX-3 in cisplatin-induced kidney injury mouse model. Type of series: in vivo. Particulars: vs. cisplatin. The source says: FIG. 9. […] (A) BUN quantification. (B) Gene expression of the inflammatory marker Tnfa.
For series [1] the following is noted: both in vitro and in vivo; cited from earlier work.
The test system of a further series is C57BL6/J mice. Description: Sub-chronic cisplatin-induced kidney injury model. Type of series: in vivo. The conditions noted are these: cisplatin 3 mg/kg for six days. As to the method: FIG. 1. Schematic representation of the different animal procedures. (A) Acute cisplatin-induced kidney injury. […] (B) Sub-chronic cisplatin-induced kidney injury. […] (C) KW-6002 administration schedule in the acute model. […] (D) KW-6002 administration schedule in the sub-chronic model.
Animal experiments were adapted from 63-64. Animal procedures were performed in 8 to 10 weeks old male C57B16/J mice (Janvier Labs). Mice were fed a laboratory standard diet with water and food ad libitum and were kept under constant environmental conditions with a 12-hour light-dark cycle. Istradefylline (KW-6002; Tocris) was dissolved in a carrier solution consisting in 15% DMSO, 15% cremophor (Sigma), 70% saline solution (vehicle). Cisplatin (Accord Healthcare) was dissolved in saline solution. […] Three days after this single injection, animals were sacrificed by cervical dislocation (FIG. 1A).
Prior sacrifice by cervical dislocation, retro-orbital blood samples were collected in heparinized tubes and centrifuged for 10 min at 2000 rpm at room temperature. Renal function was assessed by Blood urea nitrogen (BUN) measurement using a AU480 Chemistry Analyzer (Beckman Coulter). At the time of sacrifice, kidneys or LLC1 tumors were harvested and stored in either “RNA later” solution (Thermo Fisher), 4% neutral buffered formalin or snap-frozen in liquid nitrogen.
Formalin-fixed and paraffin-embedded sections (3 μm thick) were stained with Hematoxylin and Eosin (Sigma Aldrich) or Periodic Acid-Schiff (Sigma-Aldrich). Slices were scored by a nephropathologist in a blinded manner. A kidney injury score grading scale from 0 to 5 was used to assess the severity of the injury as follow: 0=no lesions, 1=minimal injury characterized by occurrence of necrosis and debris; 2=mild injury with single cell necrosis, pyknotic cells, and apoptosis; 3=moderate injury characterized by tubular distension, vacuolation, and some cellular debris, 4=severe injury with occasional hyaline casts observed, patchy epithelial necrosis in all segments, loss of epithelial lining; and 5=very severe injury characterized by extensive tubular epithelial necrosis in all segments, loss of epithelial layer from many tubules widespread intraluminal cellular debris, and frequent hyaline casts particularly prominent in the medullary region (67).
Total RNA from kidney samples was extracted with phenol/chloroform and subsequently precipitated in isopropanol as described previously (71). Total RNA from cultured renal cells was extracted using RNeasy Mini kit (Qiagen) following manufacturer's recommendations.
Reverse transcription was performed on 1 μg of RNA using high-capacity cDNA reverse transcription kit (Thermo Fisher), according the manufacturer's recommendation. Real time PCR was performed on a StepOne device using Taqman Gene Expression Master Mix (Thermo Fisher), following manufacturer's recommendations. […]

A further series has as its system kidney mouse sections. Description: Red Oil staining of kidney mouse sections. Type of series: in vivo. Particulars: cisplatin alone. The protocol: FIG. 6. KW6002 alleviates the cisplatin-induced nephrotoxicity associated with apoptosis, lipid metabolism, and oxidative stress. (A) Tail moment assessed by comet assay; 50 cells/condition were analyzed. (B and C) KW6002 attenuates cisplatin-induced renal lipid accumulation, assessed by Red Oil staining. […] Results are the mean±SEM (n=6-9 mice/group). (F-H) KW6002 attenuated cisplatin-induced oxidative stress in RPTEC/hTERT1 cells. (F and G) Gene expression of Nrf2 (F) and HO1 (G). […] Results are the mean±SEM (n=3 independent experiments).
10 μm frozen kidney mouse sections were fixed with ethanol (60%) then incubated for 15 min with Oil Red O Solution (Fisher Biotech) dissolved in isopropanol. After several washes with ddH2O, samples were incubated 3 min with hematoxylin. Lipid droplets are stained in red whereas nuclei appeared blue. […] RPTEC/hTERT cells were fixed with ethanol (60%) then incubated for 15 min with Oil Red O Solution. The cells were washed three times with ddH2O and incubated 3 min with hematoxylin. Coverslips were rinsed with H2O before mounting on microscope slides using glycerol gelatin aqueous slide mounting medium (Sigma). Quantifications were performed blindly using ImageJ software. […] The resulting red color images were quantified using a custom threshold (0.173 for RPTEC/hTERT cells and 0.140 for kidney stainings).

In another series the test system is kidney transcriptome. Description: RNA-Seq of kidney, sub-chronic protocol. Particulars: adjusted p-value<0.01, log 2 fold change±1. Type of series: in vivo, mice. The protocol:
RNA-seq libraries (n=5-6/group) were generated from 500 ng of total RNA using Illumina® TruSeq® Stranded mRNA Library Prep Kit v2. Briefly, following purification with poly-T oligo attached magnetic beads, the mRNA was fragmented using divalent cations at 94° C. for 2 min. The cleaved RNA fragments were copied into first-strand cDNA using reverse transcriptase and random primers. Strand specificity was achieved by replacing dTTP with dUTP during the second-strand cDNA synthesis by DNA polymerase I and RNase H. Following the addition of a single “A” base and the subsequent ligation of the adapter on double-stranded cDNA fragments, the products were purified and enriched with PCR [30 s at 98° C.; (10 s at 98° C., 30 s at 60° C., 30 s at 72° C.)×12 cycles; 5 min at 72° C.] to create the cDNA library. Surplus PCR primers were further removed by purification using AMPure XP beads (Beckman Coulter), and the final cDNA libraries were checked for quality and quantified using capillary electrophoresis. Sequencing was performed on the Illumina® Genome Hiseq4000 as single-end 50 base reads following Illumina's instructions. Reads were mapped onto the mm 10 assembly of Mus musculus genome using STAR v2.5.3a (72). Only uniquely aligned reads were kept for further analyses. Quantification of gene expression was performed using HTSeq-count v0.6.1p1 (73) and gene annotations from Ensembl releases 90 and 102 and “union” mode. Read counts were normalized across libraries with the method proposed by Ander et al. (74). Comparisons of interest were performed using the test for differential expression proposed by Love et al. (75) and implemented in the DESeq2 Bioconductor library (v1.16.1). Resulting p-values were adjusted for multiple testing using the Benjamini and Hochberg method (76). RNA-sequencing was performed by Plateforme GenomEast, Institut de Génétique et de Biologie Moléculaire et Cellulaire, UMR 7104 CNRS-UdS/INSERM U964 (Illkirch, France). Sequencing data that support the findings of this study have been deposited in GEO with the primary accession code GSE179247. […]

On to `CCCn1c(=O)c2[nH]c(C3CCCC3)nc2n(CCC)c1=O` [8-cyclopentyl-1,3-dipropylxanthine], for which the “protection against cisplatin nephrotoxicity” value (“protection” for short) on A1 receptor is on record as “protective against cisplatin nephrotoxicity”.
On to `CCCn1c(=O)c2[nH]c(C34CC5CC(CC3C5)C4)nc2n(CCC)c1=O` [KW-3902], for which the “protection” value on A1 receptor was “protective against cisplatin nephrotoxicity”.
As for `C#CCn1c(=O)c2c(nc(/C=C/c3cccc(OC)c3)n2C)n(CCCOP(=O)([O-])[O-])c1=O.[Na+].[Na+]` [MSX-3], the BUN entry in the series with mouse model (FIG. 9A) is “significant reduction of BUN”. Also, the “mRNA levels of Tnfα” value with mouse model (FIG. 9B) was “lower mRNA levels of Tnfα”.
In the case of `Cn1c(=O)c2c(ncn2C)n(C)c1=O` [caffeine], in series [1], the “anti-tumoral effect of cisplatin” value was “potentiate the anti-tumoral effect of cisplatin”.
Regarding `N.N.[Cl][Pt][Cl]` [cisplatin, cis-diamminedichloroplatinum (II)], in the series with C57BL6/J mice, the histological lesions result is on record as “severe histological lesions”, the “mRNA expression of Il6” value was “increased mRNA expression”, the “mRNA expression of Tnf” value is reported as “increased mRNA expression” and the “mRNA levels of KIM-1” value was “significantly increased”. The “mRNA levels of NGAL” value with C57BL6/J mice is on record as “significantly increased”. Moreover, the “blood urea nitrogen (BUN) levels” value in the series on C57BL6/J mice (data not shown) is recorded as “increased blood urea nitrogen (BUN) levels”. For the same compound, the “lipid droplets in kidney” value in the series on kidney mouse sections is recorded as “induced an accumulation of lipid droplets”. Also, in the series on kidney transcriptome, the “genes downregulated in kidney” value is recorded as 2299 genes, the “genes upregulated in kidney” value is 2350 genes and the “genes whose expression is impacted in kidney” value worked out at 4649 genes.
As for `CCCn1c(=O)c2nc(C34CCC(CCC(=O)O)(CC3)CC4)[nH]c2n(CCC)c1=O` [tonapofylline], the “protection” value at A1 receptor is “protective against cisplatin nephrotoxicity”.

The record behind these values is patent US20250161312A1, “A METHOD FOR THE TREATMENT OF CHEMOTHERAPEUTIC DRUG-INDUCED NEPHROTOXICITY” (INSTITUT NATIONAL DE LA SANTÉ ET DE LA RECHERCHE MÉDICALE, priority 2022, published 2025).
